Laboratory results: PubChem BioAssay (NCI)
“And” between values parts separate entries of the source, which are not always exact repeats. Equal values may be shown once.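 Cultured in 96-well plates, cells were exposed to test compound for 48 hours across five concentrations. The concentration for 50% growth inhibition is given as GI50. TGI: concentration producing complete growth inhibition.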

System: MDA-MB-468 breast
Test: DTP human tumour cell line panel, 48 h

Row | SMILES | GI50 | TGI
1 | CC(=O)CCN1CC2CN=NC2(C#N)C1 (stereo not given) | > 100 µM | > 100 µM
2 | COc1ccccc1CNCCCN1C(=O)c2ccc3c4c(ccc(c24)C1=O)C(=O)N(CCCNCCCCN)C3=O | 0.0907 µM | 0.231 µM
3 | CN(Cc1cnc2nc(N)nc(N)c2n1)c1c(Cl)cc(C(=O)NC(CCC(=O)O)C(=O)O)cc1Br (stereo not given) | < 0.0118 µM | > 100 µM
4 | CC(C)(C)c1cnc(CSc2cnc(NC(=O)C3CCNCC3)s2)o1 | 0.097 µM and 0.0794 µM | 0.344 µM and 0.306 µM
5 | COc1cc(C(=O)/C=C/c2c(C)n([O-])c3ccc(Cl)cc3[n+]2=O)cc(OC)c1OC | 3.52 µM | 19.3 µM
6 | COc1cc2c(cc1OC)C(Sc1ccc(Cl)cc1)c1c(nc(N)c(C#N)c1N)O2 (stereo not given) | 0.794 µM | 2.7 µM
7 | CCCCCCC1CCCCN1C(c1ccccc1)C(O)c1ccccc1 (stereo not given) | 3.81 µM | 14.4 µM
8 | CC(C)(C)OC(=O)CC(S(=O)(=O)c1ccccc1)S(=O)(=O)c1ccccc1 | 1.71 µM | 3.2 µM
9 | Cn1cc(C2=C(c3cccc([N+](=O)[O-])c3)C(=O)NC2=O)c2ccccc21 | 5.85 µM | > 25 µM
10 | Cc1ncc([N+](=O)[O-])n1CCOc1ccc(C(=O)/C=C/c2ccc(C(F)(F)F)cc2)cc1 | 3.92 µM | 21.8 µM
11 | COc1ccc(C2CC(c3cccc(Nc4ccncc4)c3)=NN2c2ccccc2)cc1 (stereo not given) | 1.42 µM | 2.82 µM
12 | C#CCN(CCCOc1ccc(Cl)cc1Cl)CCCSC(=O)CCCCCN1/C(=C\C=C2/CCCC(/C=C/C3=[N+](CCCCCC(=O)[O-])c4ccccc4C3(C)C)=C2Cl)C(C)(C)c2ccccc21 | 1.35 µM | 3.67 µM
13 | CCOC(=O)c1c(-c2ccc(Cl)cc2)c(C#N)c(=S)n(C2OC(COC(C)=O)C(OC(C)=O)C(OC(C)=O)C2OC(C)=O)c1C (stereo not given) | > 100 µM | > 100 µM
14 | COc1cc(-c2ccc[nH]2)[nH]c1/C=C1\N=C(C)C(C(=O)NC(C)C)=C1C | 2.91 µM | 16.8 µM
15 | CN(C)CC(=O)N1CCc2c([nH]c3ccccc23)C1c1cccnc1 (stereo not given) | 3.86 µM | 52.9 µM
16 | O=[N+]([O-])/C(=C/C=C/c1ccccc1)c1ccccc1 | 1.25 µM | 3.09 µM
17 | O=C(Nc1ccc(-n2cc(-c3ccncc3)c(-c3ccc(Cl)c(O)c3)n2)cc1)c1ccc(Cl)c(Cl)c1 | 4.43 µM | > 100 µM
18 | COc1ccc(-c2nn(-c3cccc(Cl)c3)cc2-c2c(C#N)c(=O)n3[nH]c(-c4ccc(C)o4)nc3c2C#N)cc1 | 1.34 µM | 4.93 µM
19 | OCCN1CCCN(CCCN2c3ccccc3Sc3ccc(C(F)(F)F)cc32)CC1 | 1.61 µM | 3.57 µM
20 | Clc1cc(Cl)cc(Nc2ccc3c(OCCCN4CCOCC4)cccc3n2)c1 | 2.08 µM | 4.33 µM
21 | Nc1nc2c([nH]1)c1[nH]c3ccccc3c1c1[nH]c3ccccc3c21 | 2.02 µM | 4.9 µM
22 | COc1cc(/C=C/C(=O)/C=C/c2ccc(-n3ccnc3)cc2)ccc1O | 2.2 µM | 5.36 µM
23 | Cc1nc2sc(C(=O)Nc3cccc(Cl)c3)c(N)c2cc1C(O)c1ccccc1 (stereo not given) | 0.486 µM | 20.1 µM
24 | CN1CCC(C(=O)Nc2n[nH]c3nnc(-c4ccccc4)cc23)CC1 | > 18.1 µM | > 25 µM
25 | CNc1ccc(CSc2ccc(C)cc2)cc1 | 2.75 µM | 9.9 µM
26 | COc1ccc([C@H]2c3[nH]c4ccccc4c3C[C@H]3C(=O)N(CCCCCCC(=O)NO)CC(=O)N23)cc1 | 1.43 µM | 18.5 µM
27 | COc1ccc(-c2nc3sccn3c2/C=C/C(=O)c2cc(OC)c(OC)c(OC)c2)cc1 | 2.44 µM | 12.4 µM
28 | C=C(c1ccc(C(=O)NCCCn2ccnc2)cc1)c1cc2c(cc1C)C(C)(C)CCC2(C)C | 1.04 µM | 3.24 µM
29 | O=C(/C=C/c1ccccn1)c1ccccc1 | 1.8 µM | 3.84 µM
30 | COc1cc(C(=O)Nc2ccc(-c3nc4ccccc4[nH]3)cc2)cc(OC)c1OC | 11.9 µM | 28.4 µM
